Patent US4946860A, “Benzothiopyranyl derivatives as HMG-CoA reductase inhibitors” (Rorer Pharmaceutical Corporation, priority 1989, dated 1990)

Columns and labels:
[1] = system: cholesterol synthesis; experiment: Ex-Vivo Non-Fasted (cholesterol synthesis from [14C] sodium acetate in liver slices of orally dosed fed rats); set-up: species or system rat; settings: oral in 0.5% methocel, livers removed two hours after dosing, dose not given
Procedure: (§1) The utility of the claimed compounds is measured by the test methods described hereunder. […] 1976, Biochemistry.
The second method used (designated Ex-Vivo Non-Fasted and Ex-Vivo Fasted) used was as follows: Rats of 170-210g were maintained on a low cholesterol diet for one week prior to use. Drugs were given orally in 0.5% methocel to both fed and fasted (fasted for 16 hours) rats. After one hour (fasted rats) and two hours (fed rats) the rats were decapitated and their livers removed and transferred to chilled oxygenated Kreb's-Ringer-bicarbonate buffer (pH 7.4). The livers were then chopped into 0.5 mm slices using a McIlwain tissue chopper, and were suspended in the same buffer. Aliquots of the suspension containing 100 mg tissue were pipetted to culture tubes which contained [^14 C] sodium acetate (2 μCi, 1 mM). The tubes were gassed with 95% O2 /5%CO2, capped and incubated at 37° C. in a shaking water bath at 150 oscillation/minute for two hours. The final assay volume was 1.0 ml. After incubation the reaction was stopped by the addition of 1.0 ml of 15% KOH in ethanol, and the internal standard ^3 H-cholesterol was added. The tubes were recapped and the samples were saponified at 75° C. for two hours with periodic mixing. […] After visualization with iodine the cholesterol spots were cut and counted with liquid scintillation fluid. […]

[2] = target: HMGR enzyme; experiment: HMGR Screen (solubilized rat liver microsomal HMG-CoA reductase, [14C] HMG-CoA); format: biochemical; settings: 20 μM HMG-CoA, pH 7.0, 37° C.
Procedure: as §1
The first method used (designated HMGR Screen) was as follows: Male rats were acclimated to an alternate 12 hour light-dark cycle for a period of 2-3 weeks. The animals, weighing 180-230g, were fed ad libitum a rat chow containing 2% cholestyramine for 5 days prior to sacrifice at the mid-dark period. Liver microsomes were prepared and HMGR enzyme was solubilized from the microsomes by freeze-thaw manipulation in high ionic strength buffer. The enzyme preparation was stored at -80° C. in 300 μl portion samples. Prior to use, the enzyme was activated at 37° C. for 30 minutes in a reaction mixture. The reaction mixture was contained in a volume of 240 μl1:0.14M potassium phosphate buffer (pH 7.0); 0.18M KCl; 3.5 mM EDTA; 10 mM dithiothreitol; 0.1 mg/ml BSA; 30,000 cpm of [^14 C] HMG-CoA; 20 μM HMG-CoA; and 200 μg of solubilized enzyme with and without inhibitors (in 10 μl DMSO). After 5 minutes incubation at 37° C. the reaction was initiated with 0.2 mM NADPH. The final assay volume was 300 μl. After 10 minutes the reaction mixture was terminated with 100 μl of 1N HCl. […] After the addition of 10 ml of Aquasol , radioactivities of the samples were measured in a scintillation counter.

## CC1(C)Sc2ccccc2C(c2ccc(F)cc2)=C1/C=C/[C@@H]1C[C@@H](O)CC(=O)O1 (relative stereo) [Example 1G]
[1]
  inhibited cholesterol synthesis: 43%
[2]
  IC50: 9.8 nM
